Patent US20170253607A1, “LONG-ACTING HIV PROTEASE INHIBITOR” (Shionogi & Co., Ltd., priority 2014, published 2017)

target: HIV-1 PR (Human immunodeficiency virus type 1 group M subtype B, UniProt P04585); experiment: HIV-protease inhibitory activity assay (FRET peptide substrate); format: biochemical; settings: Test Example 1
Method: Test Example 1: HIV-Protease Inhibitory Activity Assay
The HIV-1 PR assay was performed by using a FRET (Fluorescence Resonance Energy Transfer) peptide substrate (AnaSpec, Inc., Fremont, Calif.). Initially in the intact FRET peptide, the fluorescence of HiLyte Fluor 488 is quenched by QXL 520. Upon substrate cleavage by PR, the fluorescence is recovered and can be monitored. Test compounds diluted in DMSO was plated to the wells of 384-well plate. Then, mixed with assay buffer (0.1 mol/L NaAc containing 0.5 mol/L NaCl, 1 mmol/L EDTA, 1 mmol/L DTT, and 0.05% Tween 20, pH 4.8) in the presence or absence of HIV-1 PR (0.83 ng), and let it stand for 5 minutes at room temperature. Background fluorescence intensity was measured and let it stand for another 15 minutes at room temperature. The enzyme reaction was started by adding substrate diluted in assay buffer at final concentration of 2 μmol/L, and let it stand for 60 minutes at room temperature. After 60 minutes, the fluorescence intensity was measured. Fluorescence intensity was measured with excitation and emission wavelengths of 485 nm and 535 nm, respectively.
IC50 values were determined using non-linear regression four-parameter logistic equation, y=A+((B−A)/(1+((C/x)̂D))) where A=minimum inhibition, B=maximum inhibition, C=log IC50, D=slope factor, x=concentration of compound and y=% inhibition.

SMILES	IC50 [nM]
COc1ccc(S(=O)(=O)N(CC(C)C)CC(O)C(Cc2ccc(N(C)CC3CCCCC3c3sc4c(c3C(=O)O)CC(C)(C)CC4)cc2)NC(=O)OC2COC3(C)OCCC23)cc1 (stereo not shown) [Compound I-375]	3.87
CC(C)CN(CC(O)C(Cc1ccc(OCc2ccc(-c3ccc(F)cc3F)cc2O)cc1)NC(=O)OC1COC2OCCC12)S(=O)(=O)c1ccc2ncsc2c1 (stereo not shown) [Compound I-813]	1.06
COc1ccc(S(=O)(=O)N(CC(C)C)CC(O)C(Cc2ccc(NCc3ccccc3-c3c(C(=O)O)cnc4sccc34)cc2)NC(=O)OC2COC3(C)OCCC23)cc1 (stereo not shown) [Compound I-504]	1.93
COc1ccc(S(=O)(=O)N(CC(C)C)CC(O)C(Cc2ccc(NCc3ccc(-c4sc5c(c4C(=O)O)CC(C)(C)CC5)c4ccccc34)cc2)NC(=O)OC2COC3(C)OCCC23)cc1 (stereo not shown) [Compound I-322]	10.5
COc1ccc(S(=O)(=O)N(CC(C)C)C[C@@H](O)[C@H](Cc2ccc(OCc3ccccc3-c3sc(-c4ccccc4)nc3C(=O)O)cc2)NC(=O)O[C@H]2CO[C@H]3OCC[C@H]32)cc1 [Compound I-3]	1.02
COc1ccc(S(=O)(=O)N(CC(C)C)CC(O)C(Cc2ccc(Oc3ccc(C(=O)O)c(-c4ccc(F)cc4F)c3)cc2)NC(=O)OC2COC3(C)OCCC23)cc1 (stereo not shown) [Compound I-155]	1.37
COc1ccc(S(=O)(=O)N(CC(C)C)CC(O)C(Cc2ccc(NCC3=C(c4sc5c(c4C(=O)O)CC(C)(C)CC5)CCC(F)(F)C3)cc2)NC(=O)OC2COC3OCCC23)cc1 (stereo not shown) [Compound I-880]	4.7
COc1ccc(S(=O)(=O)N(CC2CCCC2)CC(O)C(Cc2ccc(OCc3ccccc3Cn3nc4c(c3C(=O)O)CC(C)(C)CC4)cc2)NC(=O)OC2COC3(C)OCCC23)cc1 (stereo not shown) [Compound I-216]	1.93
CC1(C)CCc2sc(-c3ccc(C(F)(F)F)cc3CNc3ccc(CC(NC(=O)OC4COC5OCCC45)C(O)CN(CC4CCC4)S(=O)(=O)c4ccc5ncsc5c4)cc3)c(C(=O)O)c2C1 (stereo not shown) [Compound I-872]	4.99
COc1ccc(S(=O)(=O)N(CC(C)C)CC(O)C(Cc2ccc(N(C)CC3CC(C)(C)CCC3c3sc4c(c3C(=O)O)CC(C)(C)CC4)cc2)NC(=O)OC2COC3(C)OCCC23)cc1 (stereo not shown) [Compound I-770]	5.56
COc1ccc(S(=O)(=O)N(CC(C)C)CC(O)C(Cc2ccc(N(CCCC(F)(F)F)Cc3ccccc3-c3sc4c(c3C(=O)O)CC(C)(C)CC4)cc2)NC(=O)OC2COC3(C)OCCC23)cc1 (stereo not shown) [Compound I-427]	10.4
COc1ccc(S(=O)(=O)N(CC(C)C)CC(O)C(Cc2ccc(OC3CC4CCC(C3)N4c3ccc(C#N)cc3-c3sc4c(c3C(=O)O)CC(C)(C)CC4)cc2)NC(=O)OC2COC3(C)OCCC23)cc1 (stereo not shown) [Compound I-324]	19.6
COc1ccc(S(=O)(=O)N(CC(C)C)CC(O)C(Cc2ccc(N3CC4CC(Oc5ccccc5-c5sc6c(c5C(=O)O)CC(C)(C)CC6)CC4C3)cc2)NC(=O)OC2COC3(C)OCCC23)cc1 (stereo not shown) [Compound I-508]	8.48
CCN(Cc1ccccc1C(=O)Nc1sc2c(c1C(=O)O)CC(C)(C)CC2)c1ccc(CC(NC(=O)OC2COC3(C)OCCC23)C(O)CN(CC(C)C)S(=O)(=O)c2ccc(OC)cc2)cc1 (stereo not shown) [Compound I-669]	8.54
COc1ccc(S(=O)(=O)N(CC(C)C)CC(O)C(Cc2ccc(NCc3ccc4scc(C(=O)O)c4c3)cc2)NC(=O)OC2COC3(C)OCCC23)cc1 (stereo not shown) [Compound I-314]	1.93
COc1ccc(S(=O)(=O)N(CC(C)C)CC(O)C(Cc2ccc(N(C)Cc3ccc(OC)c(-c4sc5c(c4C(=O)O)CC(C)(C)CC5)c3)cc2)NC(=O)OC2COC3(C)OCCC23)cc1 (stereo not shown) [Compound I-464]	2.52
COc1ccc(S(=O)(=O)N(CC(C)C)CC(O)C(Cc2ccc(NCc3cc(C(=O)O)c(C)o3)cc2)NC(=O)OC2COC3(C)OCCC23)cc1 (stereo not shown) [Compound I-317]	1.86

SMILES	IC50 [nM]
COc1ccc(S(=O)(=O)N(CC(C)C)CC(O)C(Cc2ccc(CNC(=O)c3cc(-c4ccc(F)cc4F)ccc3O)cc2)NC(=O)OC2COC3OCCC23)cc1 (stereo not shown) [Compound I-817]	1.56
COc1ccc(S(=O)(=O)N(CC(C)C)CC(O)C(Cc2ccc(NCc3ccccc3-c3c(C(=O)O)c4ccccc4n3C)cc2)NC(=O)OC2COC3(C)OCCC23)cc1 (stereo not shown) [Compound I-411]	1.3
COc1ccc(S(=O)(=O)N(CC2CCCC2)CC(O)C(Cc2ccc(NCc3cc(C(F)(F)F)ccc3-c3sc4c(c3C(=O)O)CC(C)(C)CC4)cc2)NC(=O)OC2COC3OCCC23)cc1 (stereo not shown) [Compound I-870]	9.33
COc1ccc(S(=O)(=O)N(CC(C)C)CC(O)C(Cc2ccc(NCc3cccc(-c4sc5c(c4C(=O)O)CC(C)(C)CC5)c3Cl)cc2)NC(=O)OC2COC3(C)OCCC23)cc1 (stereo not shown) [Compound I-544]	3.65
COc1ccc(S(=O)(=O)N(CC(C)C)CC(O)C(Cc2ccc(NCc3ccc(C(=O)O)cc3)cc2)NC(=O)OC2COC3(C)OCCC23)cc1 (stereo not shown) [Compound I-316]	1.85
CCCCCCCCCCCCCC(=O)Nc1ccc(CNc2ccc(CC(NC(=O)OC3COC4(C)OCCC34)C(O)CN(CC(C)C)S(=O)(=O)c3ccc(OC)cc3)cc2)c(-c2sc3c(c2C(=O)O)CC(C)(C)CC3)c1 (stereo not shown) [Compound I-763]	3.07
COc1ccc(S(=O)(=O)N(CC(C)C)CC(O)C(Cc2ccc(N(C)CC3CC(C)(C)CCC3c3sc4c(c3C(=O)O)CC(C)(C)CC4)cc2)NC(=O)OC2COC3(C)OCCC23)cc1 (stereo not shown) [Compound I-769]	5.98
CNC(=O)c1ccc(CNc2ccc(CC(NC(=O)OC3COC4(C)OCCC34)C(O)CN(CC(C)C)S(=O)(=O)c3ccc(OC)cc3)cc2)c(-c2sc3c(c2C(=O)O)CC(C)(C)CC3)c1 (stereo not shown) [Compound I-416]	1.63
COc1ccc(S(=O)(=O)N(CC(C)C)CC(O)C(Cc2ccc(C3=CCC(c4sc5c(c4C(=O)O)CC(C)(C)CC5)CC3)cc2)NC(=O)OC2COC3(C)OCCC23)cc1 (stereo not shown) [Compound I-202]	12.1
COc1ccc(S(=O)(=O)N(CC(C)C)CC(O)C(Cc2ccc(NCCn3nc4c(c3C(=O)O)CC(C)(C)CC4)cc2)NC(=O)OC2COC3(C)OCCC23)cc1 (stereo not shown) [Compound I-516]	2.29
COc1ccc(S(=O)(=O)N(CC(C)C)CC(O)C(Cc2ccc(N(Cc3ccccn3)Cc3ccccc3-c3sc4c(c3C(=O)O)CC(C)(C)CC4)cc2)NC(=O)OC2COC3(C)OCCC23)cc1 (stereo not shown) [Compound I-486]	4.59
COc1ccc(S(=O)(=O)N(CC(C)C)CC(O)C(Cc2ccc(N(C)C3Cc4cccc(-c5sc6c(c5C(=O)O)CC(C)(C)CC6)c4C3)cc2)NC(=O)OC2COC3(C)OCCC23)cc1 (stereo not shown) [Compound I-404]	1.88
COC(=O)NC(C(=O)NC(Cc1ccccc1)C(O)CN(Cc1ccc(-c2ccc(-c3sc4c(c3C(=O)O)CC(C)(C)CC4)cc2)cc1)NC(=O)C(NC(=O)OC)C(C)(C)C)C(C)(C)C (stereo not shown) [Compound I-900]	2.9
COc1ccc(S(=O)(=O)N(CC(C)C)CC(O)C(Cc2ccc(NCc3cc(-c4sc5c(c4C(=O)O)CC(C)(C)CC5)cc4ccccc34)cc2)NC(=O)OC2COC3(C)OCCC23)cc1 (stereo not shown) [Compound I-650]	4.31
COc1ccc(S(=O)(=O)N(CC(C)C)CC(O)C(Cc2ccc(OCCn3ncc(C(=O)O)c3OC(C)C)cc2)NC(=O)OC2COC3(C)OCCC23)cc1 (stereo not shown) [Compound I-309]	2
COc1ccc(S(=O)(=O)N(CC(C)C)CC(O)C(Cc2ccc(N3CCN(c4ccccc4-c4sc5c(c4C(=O)O)CC(C)(C)CC5)C3=O)cc2)NC(=O)OC2COC3(C)OCCC23)cc1 (stereo not shown) [Compound I-390]	1.84
COc1ccc(S(=O)(=O)N(CC(C)C)CC(O)C(Cc2ccc(NCc3ccc(C(=O)O)cc3-c3sc4c(c3C(=O)O)CC(C)(C)CC4)cc2)NC(=O)OC2COC3(C)OCCC23)cc1 (stereo not shown) [Compound I-413]	1.84
